From the CheMixHub ionic liquid set
± gives the uncertainty stated by the source.

Test: xn = mol fraction of the nth substance listed
Conditions: 101 kPa

CC[N+](C)(CC)CCOC.F[B-](F)(F)F + O=C1CCCO1
Conditions	electrical conductivity [S/m]	viscosity [mPa·s]
288.15 K, x1 = 0.1006	0.841 ± 0.01	6.82 ± 0.15
288.15 K, x1 = 0.2004	0.851 ± 0.01	9.23 ± 0.2
288.15 K, x1 = 0.3005	0.691 ± 0.01	16.02 ± 0.34
288.15 K, x1 = 0.4002	0.57 ± 0.01	23.81 ± 0.51
288.15 K, x1 = 0.4999	0.424 ± 0.01	63.2 ± 1.4
288.15 K, x1 = 0.6001	0.29 ± 0.01	103.1 ± 3.1
288.15 K, x1 = 0.6998	0.215 ± 0.01	157.6 ± 6.4
288.15 K, x1 = 0.7999	0.164 ± 0.01	213 ± 10
293.15 K, x1 = 0.1006	0.951 ± 0.01	5.32 ± 0.11
293.15 K, x1 = 0.2004	0.976 ± 0.01	7.92 ± 0.17
293.15 K, x1 = 0.3005	0.817 ± 0.01	13.79 ± 0.29
293.15 K, x1 = 0.4002	0.688 ± 0.01	20.66 ± 0.44
293.15 K, x1 = 0.4999	0.522 ± 0.01	49.1 ± 1
293.15 K, x1 = 0.6001	0.377 ± 0.01	78.1 ± 1.9
293.15 K, x1 = 0.6998	0.298 ± 0.01	116.8 ± 3.8
293.15 K, x1 = 0.7999	0.227 ± 0.01	155.5 ± 6.3
298.15 K, x1 = 0.1006	1.06 ± 0.011	4.185 ± 0.089
298.15 K, x1 = 0.2004	1.114 ± 0.011	6.94 ± 0.15
298.15 K, x1 = 0.3005	0.956 ± 0.01	11.91 ± 0.25
298.15 K, x1 = 0.4002	0.811 ± 0.01	17.89 ± 0.38
298.15 K, x1 = 0.4999	0.641 ± 0.01	38.49 ± 0.82
298.15 K, x1 = 0.6001	0.472 ± 0.01	59.7 ± 1.2
298.15 K, x1 = 0.6998	0.389 ± 0.01	86.9 ± 2.3
303.15 K, x1 = 0.1006	1.18 ± 0.012	3.324 ± 0.071
303.15 K, x1 = 0.2004	1.26 ± 0.013	6.02 ± 0.13
303.15 K, x1 = 0.3005	1.113 ± 0.011	10.17 ± 0.22
303.15 K, x1 = 0.4002	0.971 ± 0.01	15.32 ± 0.33
303.15 K, x1 = 0.4999	0.783 ± 0.01	30.01 ± 0.64
303.15 K, x1 = 0.6001	0.596 ± 0.01	45.3 ± 0.97
303.15 K, x1 = 0.6998	0.503 ± 0.01	64.6 ± 1.4
308.15 K, x1 = 0.1006	1.28 ± 0.013	2.671 ± 0.057
308.15 K, x1 = 0.2004	1.433 ± 0.014	5.26 ± 0.11
308.15 K, x1 = 0.3005	1.28 ± 0.013	8.82 ± 0.19
308.15 K, x1 = 0.4002	1.126 ± 0.011	13.39 ± 0.29
308.15 K, x1 = 0.4999	0.927 ± 0.01	24.01 ± 0.51
308.15 K, x1 = 0.6001	0.725 ± 0.01	35.23 ± 0.75
308.15 K, x1 = 0.6998	0.615 ± 0.01	48.3 ± 1
313.15 K, x1 = 0.1006	1.416 ± 0.014	2.197 ± 0.047
313.15 K, x1 = 0.2004	1.606 ± 0.016	4.633 ± 0.099
313.15 K, x1 = 0.3005	1.47 ± 0.015	7.63 ± 0.16
313.15 K, x1 = 0.4002	1.29 ± 0.013	11.62 ± 0.25
313.15 K, x1 = 0.4999	1.09 ± 0.011	19.44 ± 0.41
313.15 K, x1 = 0.6001	0.868 ± 0.01	27.85 ± 0.59
313.15 K, x1 = 0.6998	0.745 ± 0.01	36.75 ± 0.78
318.15 K, x1 = 0.1006	1.55 ± 0.016	1.855 ± 0.04
318.15 K, x1 = 0.2004	1.78 ± 0.018	4.085 ± 0.087
318.15 K, x1 = 0.3005	1.65 ± 0.017	6.55 ± 0.14
318.15 K, x1 = 0.4002	1.48 ± 0.015	10.01 ± 0.21
318.15 K, x1 = 0.4999	1.27 ± 0.013	15.67 ± 0.33
318.15 K, x1 = 0.6001	1.04 ± 0.01	21.94 ± 0.47
318.15 K, x1 = 0.6998	0.878 ± 0.01	27.84 ± 0.59
323.15 K, x1 = 0.1006	1.69 ± 0.017	1.577 ± 0.034
323.15 K, x1 = 0.2004	1.97 ± 0.02	3.603 ± 0.077
323.15 K, x1 = 0.3005	1.839 ± 0.018	5.68 ± 0.12
323.15 K, x1 = 0.4002	1.68 ± 0.017	8.77 ± 0.19
323.15 K, x1 = 0.4999	1.46 ± 0.015	12.42 ± 0.26
323.15 K, x1 = 0.6001	1.22 ± 0.012	16.68 ± 0.36
323.15 K, x1 = 0.6998	1.02 ± 0.01	20.94 ± 0.45
328.15 K, x1 = 0.1006	1.827 ± 0.018	1.35 ± 0.029
328.15 K, x1 = 0.2004	2.15 ± 0.022	3.183 ± 0.068
328.15 K, x1 = 0.3005	2.05 ± 0.021	4.95 ± 0.11
328.15 K, x1 = 0.4002	1.89 ± 0.019	7.71 ± 0.16
328.15 K, x1 = 0.4999	1.66 ± 0.017	10.11 ± 0.22
328.15 K, x1 = 0.6001	1.41 ± 0.014	13.1 ± 0.28
328.15 K, x1 = 0.6998	1.21 ± 0.012	15.79 ± 0.34
333.15 K, x1 = 0.1006	1.96 ± 0.02	1.142 ± 0.025
333.15 K, x1 = 0.2004	2.34 ± 0.023	2.827 ± 0.06
333.15 K, x1 = 0.3005	2.25 ± 0.023	4.282 ± 0.091
333.15 K, x1 = 0.4002	2.1 ± 0.021	6.74 ± 0.14
333.15 K, x1 = 0.4999	1.86 ± 0.019	8.58 ± 0.18
333.15 K, x1 = 0.6001	1.63 ± 0.016	11.02 ± 0.23
333.15 K, x1 = 0.6998	1.404 ± 0.014	12.64 ± 0.27
338.15 K, x1 = 0.1006	2.08 ± 0.021	0.992 ± 0.021
338.15 K, x1 = 0.2004	2.53 ± 0.025	2.498 ± 0.053
338.15 K, x1 = 0.3005	2.47 ± 0.025	3.693 ± 0.079
338.15 K, x1 = 0.4002	2.32 ± 0.023	5.89 ± 0.13
338.15 K, x1 = 0.4999	2.09 ± 0.021	6.92 ± 0.15
338.15 K, x1 = 0.6001	1.86 ± 0.019	8.55 ± 0.18
338.15 K, x1 = 0.6998	1.607 ± 0.016	9.17 ± 0.19
343.15 K, x1 = 0.1006	2.21 ± 0.022	0.876 ± 0.019
343.15 K, x1 = 0.2004	2.73 ± 0.027	2.235 ± 0.048
343.15 K, x1 = 0.3005	2.68 ± 0.027	3.194 ± 0.068
343.15 K, x1 = 0.4002	2.54 ± 0.025	5.15 ± 0.11
343.15 K, x1 = 0.4999	2.29 ± 0.023	5.85 ± 0.13
343.15 K, x1 = 0.6001	2.1 ± 0.021	7.16 ± 0.15
343.15 K, x1 = 0.6998	1.85 ± 0.019	6.87 ± 0.15
348.15 K, x1 = 0.1006	2.35 ± 0.024	0.795 ± 0.017
348.15 K, x1 = 0.2004	2.92 ± 0.029	2.001 ± 0.043
348.15 K, x1 = 0.3005	2.91 ± 0.029	2.754 ± 0.059
348.15 K, x1 = 0.4002	2.79 ± 0.028	4.507 ± 0.096
348.15 K, x1 = 0.4999	2.56 ± 0.026	4.69 ± 0.1
348.15 K, x1 = 0.6001	2.35 ± 0.024	5.48 ± 0.12
348.15 K, x1 = 0.6998	2.08 ± 0.021	5.52 ± 0.12
353.15 K, x1 = 0.1006	2.48 ± 0.025	0.716 ± 0.015
353.15 K, x1 = 0.2004	3.14 ± 0.031	1.753 ± 0.037
353.15 K, x1 = 0.3005	3.11 ± 0.031	2.391 ± 0.051
353.15 K, x1 = 0.4002	3.04 ± 0.03	4.028 ± 0.086
353.15 K, x1 = 0.4999	2.82 ± 0.028	3.864 ± 0.082
353.15 K, x1 = 0.6001	2.62 ± 0.026	4.301 ± 0.092
353.15 K, x1 = 0.6998	2.36 ± 0.024	3.983 ± 0.085

CC[n+]1ccn(C)c1.O=S(=O)([O-])C(F)(F)F + O=S(=O)([N-]S(=O)(=O)C(F)(F)F)C(F)(F)F.[Li+]
x1 = 1
Conditions	electrical conductivity [S/m]
288.15 K	0.605 ± 0.061
298.15 K	0.859 ± 0.086
333.15 K	2.24 ± 0.22
